Experimental findings from the supplement of paper PMC10307832 are described below.

Experiment in all cases: relative viability (nuclei count vs DMSO), 5 days (fraction); higher = more cells survive
Compound in the test “RU-SKI 43 + Bortezomib”: CC[C@@H](C)CNCC(=O)N1CCC2=C([C@@H]1COC3=CC=CC(=C3)C)C=CS2 [RU-SKI 43] + CC(C)C[C@H](NC(=O)[C@H](Cc1ccccc1)NC(=O)c1cnccn1)B(O)O [Bortezomib] (partner 0.002 µM)
In outline: (§1)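 Dosing by pin tool came one day after lung cancer cell lines were seeded in 1536-well plates, using either one drug or a fixed anchor-drug dose plus five library-drug doses (not always all listed) in √10 steps. After 5 days, nuclei were counted on 4× images. Relative viability is treated-well nuclei count divided by vehicle-well nuclei count, and values are medians of duplicate plates.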

Compound in the test “RU-SKI 43 + Palbociclib”: CC[C@@H](C)CNCC(=O)N1CCC2=C([C@@H]1COC3=CC=CC(=C3)C)C=CS2 [RU-SKI 43] + CC(=O)c1c(C)c2cnc(Nc3ccc(N4CCNCC4)cn3)nc2n(C2CCCC2)c1=O [Palbociclib] (partner 0.5 µM)
In short, it runs like this:
as §1

Compound in the test “Irinotecan + Linsitinib”: CCc1c2c(nc3ccc(OC(=O)N4CCC(N5CCCCC5)CC4)cc13)-c1cc3c(c(=O)n1C2)COC(=O)[C@]3(O)CC [Irinotecan] + C[C@]1(O)C[C@@H](c2nc(-c3ccc4ccc(-c5ccccc5)nc4c3)c3c(N)nccn32)C1 [Linsitinib] (partner 1 µM)
In short, it runs like this: as §1

Compound in the test “MK-8033 + OSI-027”: Cn1cc(-c2cnc3ccc4ccc(CS(=O)(=O)NCc5ccccn5)cc4c(=O)c3c2)cn1 [MK-8033] + COc1cccc2cc(-c3nc([C@H]4CC[C@H](C(=O)O)CC4)n4ncnc(N)c34)[nH]c12 [OSI-027] (partner 0.5 µM)
In short, it runs like this:
as §1

For the cell line PC-3 [JPC-3], the relative viability in the test with RU-SKI 43 + Bortezomib (first compound 0.1 µM) was determined as 0.848; with RU-SKI 43 + Bortezomib (first compound 0.3162 µM), 0.747; with RU-SKI 43 + Bortezomib (first compound 1 µM), 0.82; in the test with RU-SKI 43 + Bortezomib (first compound 3.162 µM), 0.881; with RU-SKI 43 + Bortezomib (first compound 10 µM) it was 0.827; with RU-SKI 43 + Palbociclib (first compound 0.1 µM), 0.534. For the same cell line, the relative viability was determined as 0.479 in the test with RU-SKI 43 + Palbociclib (first compound 0.3162 µM); 0.561 with RU-SKI 43 + Palbociclib (first compound 1 µM); 0.558 with RU-SKI 43 + Palbociclib (first compound 3.162 µM); 0.343 in the test with RU-SKI 43 + Palbociclib (first compound 10 µM); 0.842 with Irinotecan + Linsitinib (first compound 0.6325 µM); 0.413 with Irinotecan + Linsitinib (first compound 2 µM). Moreover, the relative viability with Irinotecan + Linsitinib (first compound 6.325 µM) was 0.377; with Irinotecan + Linsitinib (first compound 20 µM) it was 0.412; with MK-8033 + OSI-027 (first compound 0.02 µM), 0.78; with MK-8033 + OSI-027 (first compound 0.06325 µM) it was 0.647; with MK-8033 + OSI-027 (first compound 0.2 µM) it was 0.646; with MK-8033 + OSI-027 (first compound 0.6325 µM) it was 0.776. Moreover, the relative viability in the test with MK-8033 + OSI-027 (first compound 2 µM) is 0.692.

As to PC-14, the relative viability in the test with RU-SKI 43 + Bortezomib (first compound 0.1 µM) was 0.793; with RU-SKI 43 + Bortezomib (first compound 0.3162 µM) it was 1.19; in the test with RU-SKI 43 + Bortezomib (first compound 1 µM), 0.942; with RU-SKI 43 + Bortezomib (first compound 3.162 µM) it was 0.848; in the test with RU-SKI 43 + Bortezomib (first compound 10 µM) it was 0.66; with RU-SKI 43 + Palbociclib (first compound 0.1 µM) it was 0.575. Also, the relative viability with RU-SKI 43 + Palbociclib (first compound 0.3162 µM) is 0.668; in the test with RU-SKI 43 + Palbociclib (first compound 1 µM) it was 0.798; in the test with RU-SKI 43 + Palbociclib (first compound 3.162 µM) it was 0.451; with RU-SKI 43 + Palbociclib (first compound 10 µM) it was 0.401; in the test with Irinotecan + Linsitinib (first compound 0.6325 µM), 0.902; with Irinotecan + Linsitinib (first compound 2 µM), 0.609. Besides, the relative viability with Irinotecan + Linsitinib (first compound 6.325 µM) worked out at 0.188; with Irinotecan + Linsitinib (first compound 20 µM) it was 0.204; with MK-8033 + OSI-027 (first compound 0.02 µM), 0.835; in the test with MK-8033 + OSI-027 (first compound 0.06325 µM), 0.742; with MK-8033 + OSI-027 (first compound 0.2 µM) it was 0.828; in the test with MK-8033 + OSI-027 (first compound 0.6325 µM), 0.773. Also, in the test with MK-8033 + OSI-027 (first compound 2 µM), the relative viability was 0.73.

Take RERF-LC-KJ: the relative viability with RU-SKI 43 + Bortezomib (first compound 0.1 µM) is 1.12; with RU-SKI 43 + Bortezomib (first compound 0.3162 µM), 1.39; with RU-SKI 43 + Bortezomib (first compound 1 µM) it was 1.17; in the test with RU-SKI 43 + Bortezomib (first compound 3.162 µM), 1.2; with RU-SKI 43 + Bortezomib (first compound 10 µM) it was 1.2; with RU-SKI 43 + Palbociclib (first compound 0.1 µM), 1.1. In addition, the relative viability with RU-SKI 43 + Palbociclib (first compound 0.3162 µM) is 1.4; with RU-SKI 43 + Palbociclib (first compound 1 µM) it was 1.15; in the test with RU-SKI 43 + Palbociclib (first compound 3.162 µM), 1; with RU-SKI 43 + Palbociclib (first compound 10 µM) it was 0.851; in the test with Irinotecan + Linsitinib (first compound 0.6325 µM), 0.807; with Irinotecan + Linsitinib (first compound 2 µM), 0.647. For the same cell line, the relative viability in the test with Irinotecan + Linsitinib (first compound 6.325 µM) stood at 0.379; in the test with Irinotecan + Linsitinib (first compound 20 µM), 0.34; in the test with MK-8033 + OSI-027 (first compound 0.02 µM), 0.554; with MK-8033 + OSI-027 (first compound 0.06325 µM), 0.535; with MK-8033 + OSI-027 (first compound 0.2 µM), 0.531; with MK-8033 + OSI-027 (first compound 0.6325 µM), 0.521. Also, in the test with MK-8033 + OSI-027 (first compound 2 µM), the relative viability is 0.509.

Turning to SK-LU-1, the relative viability amounted to 1.37 in the test with RU-SKI 43 + Bortezomib (first compound 0.1 µM); 1.18 with RU-SKI 43 + Bortezomib (first compound 0.3162 µM); 1.39 in the test with RU-SKI 43 + Bortezomib (first compound 1 µM); 1.15 with RU-SKI 43 + Bortezomib (first compound 3.162 µM); 1.24 in the test with RU-SKI 43 + Bortezomib (first compound 10 µM); 0.386 with RU-SKI 43 + Palbociclib (first compound 0.1 µM). Further, the relative viability with RU-SKI 43 + Palbociclib (first compound 0.3162 µM) was 0.386; with RU-SKI 43 + Palbociclib (first compound 1 µM) it was 0.403; in the test with RU-SKI 43 + Palbociclib (first compound 3.162 µM) it was 0.416; in the test with RU-SKI 43 + Palbociclib (first compound 10 µM), 0.354; in the test with Irinotecan + Linsitinib (first compound 0.6325 µM), 0.491; with Irinotecan + Linsitinib (first compound 2 µM), 0.495. The relative viability with Irinotecan + Linsitinib (first compound 6.325 µM) was 0.379; with Irinotecan + Linsitinib (first compound 20 µM), 0.329; with MK-8033 + OSI-027 (first compound 0.02 µM), 0.347; in the test with MK-8033 + OSI-027 (first compound 0.06325 µM) it was 0.352; with MK-8033 + OSI-027 (first compound 0.2 µM), 0.315; in the test with MK-8033 + OSI-027 (first compound 0.6325 µM) it was 0.4. Further, the relative viability with MK-8033 + OSI-027 (first compound 2 µM) amounted to 0.371.

With SW 1573, the relative viability with RU-SKI 43 + Bortezomib (first compound 0.1 µM) was found to be 1.13; in the test with RU-SKI 43 + Bortezomib (first compound 0.3162 µM), 1.42; with RU-SKI 43 + Bortezomib (first compound 1 µM), 1.16; with RU-SKI 43 + Bortezomib (first compound 3.162 µM), 0.947; with RU-SKI 43 + Bortezomib (first compound 10 µM), 0.901; with RU-SKI 43 + Palbociclib (first compound 0.1 µM), 0.37. In addition, the relative viability came out at 0.453 in the test with RU-SKI 43 + Palbociclib (first compound 0.3162 µM); 0.397 with RU-SKI 43 + Palbociclib (first compound 1 µM); 0.375 in the test with RU-SKI 43 + Palbociclib (first compound 3.162 µM); 0.283 with RU-SKI 43 + Palbociclib (first compound 10 µM); 0.627 in the test with Irinotecan + Linsitinib (first compound 0.6325 µM); 0.534 with Irinotecan + Linsitinib (first compound 2 µM). For the same cell line, the relative viability in the test with Irinotecan + Linsitinib (first compound 6.325 µM) was 0.2; with Irinotecan + Linsitinib (first compound 20 µM), 0.178; with MK-8033 + OSI-027 (first compound 0.02 µM), 0.818; in the test with MK-8033 + OSI-027 (first compound 0.06325 µM), 0.529; in the test with MK-8033 + OSI-027 (first compound 0.2 µM) it was 0.544; with MK-8033 + OSI-027 (first compound 0.6325 µM) it was 0.603. Moreover, the relative viability with MK-8033 + OSI-027 (first compound 2 µM) worked out at 0.513.
